The values that follow are results of earlier work, collected in PMC11730002 (Turkish Journal of Pharmaceutical Sciences, 2025).

SMILES strings stand for the structures.

One data set deals with lipase. The settings on record: read-out: Lipase inhibitory activity IC50.
The target in another data set is T1, pancreatic lipase (Sus scrofa, UniProt P00591).
T1 sequence (P00591 1-450): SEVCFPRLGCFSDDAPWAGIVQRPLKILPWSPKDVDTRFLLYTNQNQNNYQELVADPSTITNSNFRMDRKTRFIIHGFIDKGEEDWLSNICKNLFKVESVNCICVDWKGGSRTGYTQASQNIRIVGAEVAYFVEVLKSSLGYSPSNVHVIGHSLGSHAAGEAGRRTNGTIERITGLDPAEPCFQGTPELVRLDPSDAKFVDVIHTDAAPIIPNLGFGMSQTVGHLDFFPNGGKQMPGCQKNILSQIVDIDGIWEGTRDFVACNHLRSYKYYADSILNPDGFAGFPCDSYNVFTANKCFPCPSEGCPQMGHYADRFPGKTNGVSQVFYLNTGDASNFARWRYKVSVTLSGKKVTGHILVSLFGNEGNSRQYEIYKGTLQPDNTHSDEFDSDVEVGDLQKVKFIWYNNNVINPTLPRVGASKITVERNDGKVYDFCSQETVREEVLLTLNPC
The settings on record: read-out: Pancreatic lipase inhibition IC50; in vitro study.

With `O=C(/C=C/c1ccc(O)c(O)c1)O[C@H](Cc1ccc(O)c(O)c1)C(=O)O` [Rosmarinic acid], the IC50 is 62.8 ± 2.7 µM on lipase and 347 µM at pancreatic lipase.
